# US20230159620A1, “COMPOSITIONS AND METHODS OF TREATMENT FOR VASCULAR DISEASES AND THROMBOSIS” (Washington University, priority 2021, published 2023)
# Tests used:
# AKT [1] = assay: AKT signaling immunoblot / phospho-array, HUVECs; type: cell-based, human
# Protocol: (§1) Cellular reagents were purchased from various commercial vendors. Primary human umbilical vein endothelial cells (HUVECs) were obtained from Cell Applications Inc. and cultured according to the manufacture's recommendations. Primary human coronary artery smooth muscle cells were obtained from Invitrogen and were cultured according to the manufacture's recommendations. 293T cells were obtained from ATCC and were cultured according to the manufacture's recommendations. Mouse primary smooth muscle cells were obtained and cultured as described previously. Predesigned Silencer Select siRNA constructs targeting Pearl 1 and negative control siRNA were obtained from ThermoFisher. Transfections were performed using RNAiMAX or Lipofectamine 3000 transfection reagents according to the manufacturer's protocols. Cells were used for signaling assays 48 hours after transfection; efficient Pearl 1 knockdown or Pearl 1 overexpression was confirmed by immunoblot assays.
# Prior to performing signaling assays, cells were trypsinized, centrifuged, suspended in basal media, and counted using an automated hemocytometer. Cells were further diluted in basal media to an assay-dependent concentration. Cells were then incubated with gentle agitation for 60 minutes to prevent cell attachment and reduce basal signaling. PP1, Dynasore, MK-2206, and Rapamycin were diluted in DMSO and used in assay concentrations of 10 μM, 100 μM, 10 μM, and respectively, for the final 20-30 minutes of incubation in basal media. An equal volume of DMSO was used as the negative control condition. […] 1 μg Pearl 1 polyclonal antibody was added as a specific positive control. 20% growth media or 2% fetal bovine serum, labeled “Serum” in figures, was added as a non-specific positive control. The cells were centrifuged at 300G for 3 minutes with the exception of platelets, which were centrifuged at 500G for 5 minutes. The cells were then incubated at 37° C. for 8-45 minutes, depending on the cell type and pathway of interest. The cells were lysed in radioimmunoprecipitation buffer (RIPA) containing a cocktail of protease and phosphatase inhibitors and universal nuclease. Immunoblots were performed by standard techniques, as briefly follows. Protein content was determined using a bicinchoninic acid assay with BSA standards (#23225, Pierce BCA Protein Assay Kit). Cell lysates were then reduced with dithiothreitol (DTT) in lithium dodecyl sulfate (LDS) sample buffer (#NP0007, Invitrogen). Equal protein amounts were added to polyacrylamide gels (#4561086, BioRad) and electrophoresed prior to transferring to a nitrocellulose or polyvinylidene fluoride membrane (#1620260, BioRad). Membranes were blocked in 5% BSA/Tris-buffered saline (TBS) with 0.1% Tween 20 for 30 minutes. […]
# platelets = tested on: platelets
# Protocol: Complete blood counts (CBC) and washed platelet counts were determined using a hematology analyzer Element HT5 (Heska, Loveland). […] For flow cytometry, diluted whole blood or isolated platelets were pre-incubated with their respective fluorescent antibodies for 15 minutes and fixed. For murine whole blood: CD41-VioBlue, CD61-PE (Mitlenyi Biotec, Bergisch Gladbach, Germany), CD42b-DL649, GPVI-FITC (Emfret, Eibelstadt, Germany) and for human whole blood and isolated platelets: CD41-FITC, CD61-APC, CD42b-PE (Biolegend, San Diego), GPVI-BV421 617 (BD, Franklin Lakes). Platelet surface receptor levels were quantified by flow cytometry on a 618 CytoFlex analyzer.
# Integrin signaling = Integrin signaling western blot, THP-1 cells; type: cell-based, human
# Protocol: Cells were resuspended in serum-free media (SFM) and incubated with gentle agitation to prevent cell attachment and reduce basal signaling. […] Cells were briefly centrifuged to the bottom of the wells and incubated for 8 min (for VSMCs) or 15 min (for THP-1 cells) before lysis with cell lysis buffer (#9803, Cell Signaling Technologies) containing a cocktail of protease and phosphatase inhibitors. Western blots were performed by standard techniques, as briefly follows. Protein content was determined using a bicinchoninic acid assay with BSA standards (#23225, Pierce™ BCA Protein Assay Kit). Cell lysates were then reduced with DTT in lithium dodecyl sulfate sample buffer (#NP0007, Invitrogen). Equal protein amounts were added to polyacrylamide gels (#4561086, BioRad) and electrophoresed prior to transferring to a nitrocellulose or polyvinylidene fluoride membrane (#1620260, BioRad). Membranes were blocked in 5% BSA/Tris-Buffered Saline with tween 20 for 30 min. The indicated primary antibodies were incubated with the pre-blocked membranes for overnight at 4° C. Membranes were washed with Tris-Buffered Saline with tween 20, probed with fluorescent secondary antibodies, and imaged. β-actin or β-tubulin served as a loading control.
# AKT [2] = assay: AKT signaling immunoblot, 293T cells; type: cell-based
# Protocol: as §1
# Prior to performing signaling assays, cells were trypsinized, centrifuged, suspended in basal media, and counted using an automated hemocytometer. Cells were further diluted in basal media to an assay-dependent concentration. […] Protein content was determined using a bicinchoninic acid assay with BSA standards (#23225, Pierce BCA Protein Assay Kit). […]
# mTOR = mTOR signaling, phospho-array and immunoblot, HUVECs; type: cell-based, human
# Protocol: Prior to performing signaling assays, cells were trypsinized, centrifuged, suspended in basal media, and counted using an automated hemocytometer. Cells were further diluted in basal media to an assay-dependent concentration. Cells were then incubated with gentle agitation for 60 minutes to prevent cell attachment and reduce basal signaling. PP1, Dynasore, MK-2206, and Rapamycin were diluted in DMSO and used in assay concentrations of 10 μM, 100 μM, 10 μM, and respectively, for the final 20-30 minutes of incubation in basal media. An equal volume of DMSO was used as the negative control condition. […] 1 μg Pearl 1 polyclonal antibody was added as a specific positive control. 20% growth media or 2% fetal bovine serum, labeled “Serum” in figures, was added as a non-specific positive control. The cells were centrifuged at 300G for 3 minutes with the exception of platelets, which were centrifuged at 500G for 5 minutes. The cells were then incubated at 37° C. for 8-45 minutes, depending on the cell type and pathway of interest. The cells were lysed in radioimmunoprecipitation buffer (RIPA) containing a cocktail of protease and phosphatase inhibitors and universal nuclease. Immunoblots were performed by standard techniques, as briefly follows. Protein content was determined using a bicinchoninic acid assay with BSA standards (#23225, Pierce BCA Protein Assay Kit). Cell lysates were then reduced with dithiothreitol (DTT) in lithium dodecyl sulfate (LDS) sample buffer (#NP0007, Invitrogen). Equal protein amounts were added to polyacrylamide gels (#4561086, BioRad) and electrophoresed prior to transferring to a nitrocellulose or polyvinylidene fluoride membrane (#1620260, BioRad). Membranes were blocked in 5% BSA/Tris-buffered saline (TBS) with 0.1% Tween 20 for 30 minutes. The indicated primary antibodies were incubated with the pre-blocked membranes overnight at 4° C. Membranes were washed with TBS with 0.1% Tween 20, probed with fluorescent secondary antibodies, and imaged. β-actin or β-tubulin served as a loading control. […]
# HUVECs = assay: HUVEC adhesion assay; type: cell-based, human; details: wells coated with increasing concentrations, 10 minutes
# Protocol: Subsequently, wells were blocked with 100 mg/mL BSA and washed with DPBS. HUVECs were collected and resuspended in basal media. 5,000 cells were added to each well. Cells were centrifuged and incubated at 37° C. for 10 minutes. The plate was gently centrifuged upside down to remove non-adhered cells. Adhered cells were fixed with 4% paraformaldehyde, stained with 4′,6-diamidino-2-phenylindole (DAPI), and counted by automated microscopy as done previously.
# Fibronectin = Fibronectin (Mus musculus, UniProt P11276); details: enriched VSMC media
# Protocol: Affinity-based proteomics: Murine VSMCs were grown to confluence in serum-containing media and changed to serum-free media to generate enriched media. […] An aliquot was removed after incubation as the “input” fraction. Media was then added to a slurry of Pierce Anti-c-Myc Magnetic Beads+0.05% Tween 20 and incubated for 30 minutes while rocking at 4° C. The beads were then washed twice with Ca^2+ and Mg^2+-containing PBS (D8662, Sigma) +0.05% Tween 20 and twice with Ca^2+ and Mg^2+-containing PBS before a final resuspension in PBS. An aliquot of the beads was reserved as the pulldown fraction for validation. […] The samples were incubated for 4 hours prior to dialysis. Protease arrest (G-Biosciences) was added and excess biotin was dialyzed using a 10 kDa molecular weight cut-off (MWKO) Slide-A-Lyzer™ dialysis Cassette (ThermoFisher Scientific) in buffered saline+1 mM EDTA. The samples were then transferred to 10 kDa MWKO Vivasin column (Sartorius Stedim Biotech), centrifuged, resuspended in RIPA buffer, centrifuged, and added to pre-washed Pierce Streptavidin Magnetic Beads. The samples and beads were incubated for 1 hour at room temperature or overnight at 4° C. and then washed with the following solutions: RIPA buffer, 1M 732 KCl, 0.1M Na2CO3, 2M urea in 10 mM Tris HCl (pH=8.0), and PBS. The beads were then resuspended in PBS for peptide preparation.
# VSMCs = assay: VSMC adhesion assay; type: cell-based, mouse; details: immobilized protein
# From the text: Plates were ultraviolet (UV) sterilized before adding cells. […] Efficient Itgα9 knockdown was confirmed by qPCR.
# Fibronectin, sequence (P11276 33-2477): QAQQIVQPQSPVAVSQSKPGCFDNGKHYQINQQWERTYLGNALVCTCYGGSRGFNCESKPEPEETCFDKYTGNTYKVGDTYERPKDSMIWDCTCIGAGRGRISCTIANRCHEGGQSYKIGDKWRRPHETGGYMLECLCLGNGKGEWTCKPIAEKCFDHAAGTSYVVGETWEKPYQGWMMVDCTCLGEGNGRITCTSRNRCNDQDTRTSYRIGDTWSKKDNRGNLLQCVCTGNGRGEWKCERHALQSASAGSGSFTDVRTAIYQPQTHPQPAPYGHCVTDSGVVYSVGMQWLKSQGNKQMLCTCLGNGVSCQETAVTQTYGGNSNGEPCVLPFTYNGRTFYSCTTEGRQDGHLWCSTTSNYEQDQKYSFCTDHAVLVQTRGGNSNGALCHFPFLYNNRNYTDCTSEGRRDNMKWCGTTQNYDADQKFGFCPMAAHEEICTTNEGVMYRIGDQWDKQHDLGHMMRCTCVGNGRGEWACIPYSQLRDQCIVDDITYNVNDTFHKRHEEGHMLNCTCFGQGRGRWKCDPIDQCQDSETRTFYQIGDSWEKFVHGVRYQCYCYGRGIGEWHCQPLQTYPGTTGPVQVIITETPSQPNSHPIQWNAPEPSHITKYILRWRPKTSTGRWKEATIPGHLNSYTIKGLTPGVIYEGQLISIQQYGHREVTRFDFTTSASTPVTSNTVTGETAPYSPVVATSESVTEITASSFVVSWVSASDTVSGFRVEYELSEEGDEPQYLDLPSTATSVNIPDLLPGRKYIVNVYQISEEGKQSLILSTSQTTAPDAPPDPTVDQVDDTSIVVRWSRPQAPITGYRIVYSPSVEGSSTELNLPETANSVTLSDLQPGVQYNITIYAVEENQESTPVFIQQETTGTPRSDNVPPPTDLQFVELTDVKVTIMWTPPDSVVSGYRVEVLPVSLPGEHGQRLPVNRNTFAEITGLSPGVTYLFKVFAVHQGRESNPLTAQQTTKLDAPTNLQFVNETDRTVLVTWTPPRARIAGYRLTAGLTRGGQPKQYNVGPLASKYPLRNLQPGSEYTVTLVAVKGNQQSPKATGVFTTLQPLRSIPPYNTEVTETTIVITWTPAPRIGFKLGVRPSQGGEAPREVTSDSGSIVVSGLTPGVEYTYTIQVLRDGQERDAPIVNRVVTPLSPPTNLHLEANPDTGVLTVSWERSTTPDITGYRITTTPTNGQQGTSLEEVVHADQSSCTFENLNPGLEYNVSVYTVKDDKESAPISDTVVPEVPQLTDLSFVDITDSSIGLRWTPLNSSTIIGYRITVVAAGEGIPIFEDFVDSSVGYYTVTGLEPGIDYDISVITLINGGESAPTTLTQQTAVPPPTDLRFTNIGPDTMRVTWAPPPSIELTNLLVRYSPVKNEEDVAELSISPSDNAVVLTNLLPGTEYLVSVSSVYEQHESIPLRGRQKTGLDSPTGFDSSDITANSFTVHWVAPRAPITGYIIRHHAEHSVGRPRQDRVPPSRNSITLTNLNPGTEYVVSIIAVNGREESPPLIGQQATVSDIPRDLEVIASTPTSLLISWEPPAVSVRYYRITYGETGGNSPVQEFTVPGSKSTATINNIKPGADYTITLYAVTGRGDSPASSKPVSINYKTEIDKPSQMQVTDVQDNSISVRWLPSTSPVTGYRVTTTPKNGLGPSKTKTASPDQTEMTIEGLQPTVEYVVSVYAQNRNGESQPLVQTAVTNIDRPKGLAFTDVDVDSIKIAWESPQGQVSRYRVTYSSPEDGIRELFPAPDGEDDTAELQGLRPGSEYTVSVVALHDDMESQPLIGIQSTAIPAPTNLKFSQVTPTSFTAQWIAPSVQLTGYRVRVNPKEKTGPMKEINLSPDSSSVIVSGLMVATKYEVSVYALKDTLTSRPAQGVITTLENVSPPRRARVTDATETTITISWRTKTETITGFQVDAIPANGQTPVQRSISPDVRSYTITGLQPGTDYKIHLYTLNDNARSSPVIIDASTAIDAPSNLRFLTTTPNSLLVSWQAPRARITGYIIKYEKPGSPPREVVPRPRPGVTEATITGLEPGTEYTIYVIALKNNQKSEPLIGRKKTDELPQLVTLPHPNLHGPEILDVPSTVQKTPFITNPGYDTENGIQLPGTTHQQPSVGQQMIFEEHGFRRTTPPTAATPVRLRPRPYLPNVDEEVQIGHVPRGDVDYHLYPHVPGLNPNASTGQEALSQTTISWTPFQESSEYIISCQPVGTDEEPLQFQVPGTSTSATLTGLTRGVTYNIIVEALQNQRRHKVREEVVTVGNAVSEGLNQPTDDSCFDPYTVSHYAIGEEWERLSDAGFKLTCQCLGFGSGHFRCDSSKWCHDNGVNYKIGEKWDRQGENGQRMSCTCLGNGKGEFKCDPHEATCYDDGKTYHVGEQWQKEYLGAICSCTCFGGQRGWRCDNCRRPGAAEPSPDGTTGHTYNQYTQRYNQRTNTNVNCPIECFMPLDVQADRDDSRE
substance,measurement,setting,value
"SVEP1: recombinant murine SVEP1 extracellular matrix protein with Myc and poly-histidine tag, expressed in 293F cells","pAKT, AKT pathway phospho-array","AKT [1]; 10 or 30 minutes, SVEP1 relative to BSA",Elevated pAKT
same,AKT signaling,AKT [1]; relative to BSA controls,activated
same,platelet aggregation and agglutination,platelets; platelets from mice compared to humans,notably milder
same,platelet aggregation (decrease in whole blood platelet count),"platelets; soluble recombinant SVEP1, human whole blood",induced spontaneous platelet aggregation and agglutination
same,integrin signaling,Integrin signaling,activated
same,pAKT levels,AKT [2]; 293T cells transfected with Pearl 1-expression plasmid (constitutive AKT activation),no additional effect on pAKT levels
same,AKT activation,"AKT [2]; 293T cells, which lack Pearl 1",Neither SVEP1 nor Pearl 1 pAb activated AKT
same,"phosphorylated mTOR (Ser 2448) and p70S6K Thr 389, immunoblot",mTOR; 10 or 30 minutes,activation of mTOR signaling
same,AKT pathway phospho-proteins,mTOR; 10 minutes of exposure,Few changes
same,"mTOR pathway phospho-proteins (p70S6K, RPS6, 4E-BP1)",mTOR; 30 minutes of exposure,elevated
same,adherence of HUVECs to coated protein,HUVECs,dose-dependent manner up to 20 pg/mL
same,pulldown of Fibronectin,Fibronectin,confirmed
same,adhesion of VSMCs,VSMCs,adhere to SVEP1 in a dose-dependent manner
